Experimental findings from US8273743B2, “Quinoxaline inhibitors of the hedgehog signalling” (Curis, Inc., priority 2004, dated 2012) are described below.

The structures appear in SMILES notation.

The subject of the assay is hedgehog pathway signaling (10T1/2-GliLuc [s12] or HEPM-GliLuc [MZ24] Gli reporter cell lines). As to the kind of experiment: Hedgehog signalling inhibition assay (Gli-luciferase reporter gene assay). Type of assay: cell-based. The settings on record: average IC50; either mouse [s12] or human [MZ24] Gli reporter cell lines; with Sonic hedgehog-octyl conjugate, 24 hrs. Here is the method: Mouse Reporter Cell lines—10T1/2-GliLuc [s12] cells (derived from cell line C3H10T1/2 ATCC #CCL-226); Mouse Embryonic Fibroblasts); Growth Medium: Dulbecco's modified Eagles' Medium (DMEM) supplemented with 10% Fetal Bovine Serum (FBS), 10 units/mL penicillin, 100 ug/mL streptomycin, 2 mM glutamine, and 10 mM HEPES.
Human Reporter Cell lines—HEPM-GliLuc [MZ24]—cells (derived from HEPM, Human Embryonic Palatal Mesenchyme ATCC #CRL-1486); Growth Medium: Minimum Essential Medium (MEM; with Earle's salts) supplemented with 10-20% Fetal Bovine Serium (FBS), 10 units/mL penicillin, 100 ug/mL streptomycin, 2 mM glutamine, and 10 mM HEPES pH 7.2.
Sonic hedgehog—recombinant human SHh N-terminal octylated conjugate.
Microtiter Plates (MTPs)—For the Luciferase assay cells are plated in 96-well MTPs (White, Flat-bottom, Clear-View).
Luciferase-Assay Medium—DMEM supplemented with 0.5% FBS, 10 units/mL penicillin, 100 ug/mL streptomycin, 2 mM glutamine, and 10 mM HEPES pH 7.2.
PBS/Ca/Mg Mix—Phosphate Buffered Saline (PBS) supplemented with 0.5 mM CaCl2 and 1 mM MgCl2.
S12 and MZ24 cells genetically modified to contain a luciferase reporter gene driven by the hedgehog-responsive Gli promoter were maintained on tissue culture dishes in Growth Medium at 37° C. and 5% CO2. Cell cultures were passaged at sub-confluency at every 3-4 days. (1:20 to 1:40 for s12; 1:3 to 1:10 for MZ24). Cells were harvested and diluted in Growth Medium such that they could be plated in a microtitre plate at 10,000-20,000 cells (s12), or 20,000-30,000 cells (MZ24), per 100 ul, per well. Cells were further incubated for ˜24-48 hours at 37° C. and 5% CO2.
After ˜24-48 hour incubation the Growth Medium in the microtitre plates was replaced by Luciferase-Assay Medium (100 ul per well), with and without Sonic hedgehog-octyl conjugate, at 0.1-0.3 ug/ml (S12) or 0.5-1.0 ug/ml (MZ24), and test compounds. Cells were then further incubated for and additional 24 hrs.
Microtitre plates were then subjected to the luciferase reporter gene assay kit (LucLite™), with modifications to the manufacturer's procedure wherein medium was removed and the substrate was reconstituted with 1:1 PBS/Ca/Mg:lysis buffer instead of straight lysis buffer. In brief, the PBS/Ca/Mg was mixed 1:1 with lysis buffer and 10 mL were added to each substrate vial (of the 1000-assay kit). Then the assay media from the microtitre plate was discarded, and 100 ul of this substrate mix was added to each well. Plates were incubated at room temperature for 20-30 minutes and then the Relative Light Units (RLUS) representing the relative expression level of the luciferase reporter gene were determined with a Topcount reader (Packard) or an Analyst reader (Molecular Devices).
The following table 1 represents the average IC50 values for particular compounds tested according to the procedures above using either mouse [s12] or human [MZ24] Gli reporter cell lines indicating inhibition of hedgehog pathway signaling.
On the technique in general: In a reporter assay the amount or activity of a reporter protein is the signal.
As to `Cc1ccc2ncc(-c3cc(NC(=O)c4ccc(C(F)(F)F)nc4C)ccc3Cl)nc2c1C` [compound 45], the IC50 is below 1000 nM.
The figure for `COc1cc(OC)cc(C(=O)Nc2ccc(Cl)c(-c3cnc4ccc(C)c(C)c4n3)c2)c1` [compound 54] is below 1000 nM.
Then `O=C(Nc1ccc(Cl)c(-c2cnc3ccccc3n2)c1)C1CC1` [compound 27], with below 1000 nM; and `Cc1nc(C(F)(F)F)ccc1C(=O)Nc1ccc(Cl)c(-c2cnc3cccnc3n2)c1` [compound 55], with below 1000 nM.
Then `Cc1nc(C(F)(F)F)ccc1C(=O)Nc1ccc(Cl)c(-c2cnc3c(C)cccc3n2)c1` [compound 47], with below 1000 nM.
Consider `Cc1cc2ncc(-c3cc(NC(=O)c4ccc(C(F)(F)F)nc4C)ccc3Cl)nc2cc1C` [compound 42], for which the IC50 is below 1000 nM.
`O=C(Nc1ccc(Cl)c(-c2cnc3ccccc3n2)c1)c1ccc(Cl)cc1` [compound 34]: the IC50 was below 1000 nM.
As to `CS(=O)(=O)c1cccc(C(=O)Nc2ccc(Cl)c(-c3cnc4ccccc4n3)c2)c1` [compound 24], the IC50 is below 1000 nM.
`Cc1nc(C(F)(F)F)ccc1C(=O)Nc1ccc(Cl)c(-c2cnc3c(F)cc(F)cc3n2)c1` [compound 39]: the IC50 is below 1000 nM.
For the molecule `Cc1ccsc1C(=O)Nc1ccc(Cl)c(-c2cnc3ccccc3n2)c1` [compound 7], the IC50 was below 1000 nM.
In turn, `O=C(Nc1ccc(Cl)c(-c2cnc3ccccc3n2)c1)c1cccnc1F` [compound 6] registered an IC50 below 1000 nM.
`O=C(Nc1ccc(Cl)c(-c2cnc3ccccc3n2)c1)c1cccc(Cl)c1` [compound 33] had an IC50 below 1000 nM.
Then `O=C(Nc1ccc(Cl)c(-c2cnc3ccccc3n2)c1)c1cccnc1Cl` [compound 37], with below 1000 nM; and `CS(=O)(=O)c1ccc(C(=O)Nc2ccc(Cl)c(-c3cnc4ccccc4n3)c2)cc1` [compound 18], with below 1000 nM.
Molecule `Cc1cc(C)c2nc(-c3cc(NC(=O)c4ccc(C(F)(F)F)nc4C)ccc3Cl)cnc2c1` [compound 48] had an IC50 below 1000 nM.
For `O=C(Nc1ccc(Cl)c(-c2cnc3ccccc3n2)c1)c1ccc(Cl)nc1` [compound 36], the IC50 was below 1000 nM.
Regarding `Cc1cc(C(=O)Nc2ccc(Cl)c(-c3cnc4ccccc4n3)c2)c(C(F)(F)F)o1` [compound 31], the IC50 is below 1000 nM.
The figure for `Cc1nc(C(F)(F)F)ccc1C(=O)Nc1ccc(Cl)c(-c2cnc3cc(F)ccc3n2)c1` [compound 43] is below 1000 nM; for `O=C(Nc1ccc(Cl)c(-c2cnc3ccccc3n2)c1)c1ccc2cc[nH]c2c1` [compound 19] it is below 1000 nM.
The molecule `O=C(Nc1ccc(Cl)c(-c2cnc3ccccc3n2)c1)c1cccnc1` [compound 35] gave an IC50 below 1000 nM.
Turning to `O=C(Nc1ccc(Cl)c(-c2cnc3ccccc3n2)c1)c1cccs1` [compound 38], the IC50 is below 1000 nM.
The molecule `COc1cc(OC)cc(C(=O)Nc2ccc(Cl)c(-c3cnc4c(C)cccc4n3)c2)c1` [compound 46] had an IC50 below 1000 nM.
`O=C(Nc1ccc(Cl)c(-c2cnc3ccccc3n2)c1)c1ccc(Cl)nc1Cl` [compound 15] yielded an IC50 below 1000 nM.
The figure for `Cc1nc(C(F)(F)F)ccc1C(=O)Nc1ccc(Cl)c(-c2cnc3c(F)c(F)ccc3n2)c1` [compound 40] is below 1000 nM; for `Cc1nc(C(F)(F)F)ccc1C(=O)Nc1ccc(Cl)c(-c2cnc3cc(F)c(F)cc3n2)c1` [compound 41] it is below 1000 nM.
Then `CC(C)CC(=O)Nc1ccc(Cl)c(-c2cnc3ccccc3n2)c1` [compound 56], with below 1000 nM.
Then `O=C(Nc1ccc(Cl)c(-c2cnc3ccccc3n2)c1)c1cccc2c1OCCO2` [compound 44], with below 1000 nM.

Usually IC50 stands for the concentration that gives 50% inhibition.
